Source: patent publication US12600696B2 (XENIOPRO GMBH, priority 2017, dated 2026)

Key:
Format in all cases: cell-based
[1] = system: TT cells (human medullary thyroid carcinoma cells); experiment: alamarBlue proliferation assay with TT cells; conditions: for activity at 40 µM: Homo sapiens, 120 h, relative to DMSO basis level 1.0, read-out: weighted arithmetic mean (AVEw) of normalized fluorescence intensity, activity range
Experimental: The antiproliferative activities of compounds falling under formula I, formula II, formula III, formula IV and formula V were investigated on cells or cell lines originating from a disorder of the myeloid cell compartment, the neuroendocrine system, the cervix, and the mucosal epithelium, as well as from the skin epithelium. To this end, HL-60 cells, TT cells, HeLa cells, CAL-27 cells and human primary epidermal keratinocytes (HPEK) were seeded into 96-well plates suitable for fluorescence assays (CORNING #3598) at following initial cell numbers: 1000 cells per well for HL-60; 9000 cells per well for TT; 2000 cells per well for HeLa, 2000 cells per well for CAL-27, 2000 cells per well for HPEK. The cells were treated with compounds at indicated final concentrations (diluted from the 1000× stock-solutions in DMSO to a final DMSO concentration of 0.1% v/v) or with the empty carrier DMSO at 0.1% v/v as control for 5 days. At day 5 after starting the treatments the cells were subjected to the alamarBlue® Proliferation Assay (Bio-Rad Serotec GmbH, BUF012B) according to the protocol of the manufacturer. The readout was taken with a multi-well plate-reader in the fluorescence mode with applying a filter for excitation at 560 nm (band width 10 nm) and for emission at 590 nm (band width 10 nm). Resveratrol (RES) treatment was included as control for growth inhibition.
The assays were performed in duplicate or more replicates of independent single experiments each containing a six-fold replicate for every condition. For every individual plate, the measured fluorescence intensity values of the conditions with compound treatment were normalized against the corresponding equally weighted arithmetic mean of the fluorescence intensity values of the six DMSO treated control wells in order to obtain the relative values to a baseline level of 1.0. The statistical calculations were performed in analogy to the luciferase assay as described above. To this end, two independent outlier analyses were performed according to the methods by Peirce and Chauvenet (Ross, Journal of Engineering Technology 2003, 1-12). Outliers confirmed by at least one of the methods were excluded from the calculations but not more than one value out of six per compound within a single experiment. The weighted arithmetic mean AVEw for each compound was calculated from the normalized values over all independent replicates of the single experiments comprising the six replicates each. The corresponding standard deviation for the weighted arithmetic mean was calculated according to the method described by Bronstein et al. (Bronstein, Semendjajew, Musiol, Mühlig, Taschenbuch der Mathematik, 5th edition 2001 (German), publisher: Verlag Harri Deutsch, Frankfurt am Main and Thun) and was combined with the Gauß′ error propagation associated with the performed calculation for the normalization. The resulting standard deviation is herein referred to as “combined standard deviation”.
TT cells were cultivated according to the protocol of the provider in F-12K medium (Fisherscientific, #11580556, or ATCC, #ATCC-30-2004) containing 10% fetal bovine serum (Fisherscientific, #15517589).
A compound is considered as a growth inhibitor of TT cells, if—at a reference concentration of 40 μM—the weighted arithmetic mean of the normalized fluorescence intensity values after addition of the corresponding combined standard deviation amounts to 0.9 or lower, in particular to 0.8 or lower, 0.7 or lower, 0.6 or lower, 0.4 or lower, and 0.2 or lower, relative to the overall basis level of 1.0. The overall basis level was calculated as the weighted arithmetic mean of all normalized values from the DMSO control measurements in analogy to the calculations performed for the test-compounds. The corresponding combined standard deviation for the DMSO values amounts to less than 1·10^−2.

[2] = system: HL-60 cells (human acute myeloid leukemia cells); experiment: alamarBlue proliferation assay with HL-60 cells; conditions: 120 h, 5 days, relative to DMSO baseline level of 1.0, read-out: AVEw, weighted arithmetic mean of normalized fluorescence intensity values (Activity Range), HL-60 proliferation
In short: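 HL-60 cells (1000/well, RPMI 1640 + 10% FBS) exposed to compound in 0.1% DMSO for 5 days, then alamarBlue fluorescence read (ex 560/em 590 nm). Signals normalized to six DMSO wells per plate (baseline 1.0); outliers removed by Peirce/Chauvenet; weighted mean with combined SD; inhibitor criterion judged at 20 μM reference concentration.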

[3] = system: BHY cells (human oral squamous cell carcinoma cells); experiment: alamarBlue proliferation assay with BHY cells; conditions: 72 h, 3 days treatment, single assay (preliminary), relative to DMSO basis level 1.0, read-out: equally weighted arithmetic mean (AVE) of six normalized fluorescence intensity values, activity range (RES: AVEw)
Experimental: Compounds were tested on BHY cells using the alamarBlue® proliferation assay in analogy to the above described method with seeding the cells at an initial number of 4000 cells per 96-well and a duration of treatment with compounds for 3 days.
BHY cells were cultivated according to the protocol of the provider (but at 5% instead of 10% CO2) in DMEM medium (Fisherscientific, #11584456) containing 10% fetal bovine serum (Fisherscientific, #15517589).
A compound is considered as a growth inhibitor of BHY cells, if—at a reference concentration of 40 μM—the equally weighted arithmetic mean (AVE) of the six normalized fluorescence intensity values after addition of the corresponding standard deviation amounts to 0.9 or lower, in particular to 0.8 or lower, 0.7 or lower, 0.6 or lower, 0.4 or lower, and 0.2 or lower, relative to the overall basis level of 1.0. The overall basis level was calculated as the weighted arithmetic mean (AVEw) of all normalized values from the DMSO control measurements. The corresponding combined standard deviation for the DMSO values amounts to less than 1·10^−2. The corresponding standard deviations for the tested compounds were calculated including the Gauß′ error propagation associated with the performed calculation for the normalization. The weighted arithmetic mean (AVEw) and the combined standard deviation for RES was calculated in analogy to DMSO. Outlier analyses were performed as described above.

| SMILES | activity at 40 µM [1] [%] | activity at 20 µM [2] [%] | activity at 40 µM [3] [%] | weighted arithmetic mean (AVEw) of normalized fluorescence intensity ([1]; control RES at 20 μM, relative to DMSO basis level 1.0) |
| --- | --- | --- | --- | --- |
| NC(=O)c1ccc(Oc2ccc(C3CC4CCC3C4)cc2)cc1 (racemic) [Compound 159, (±)-4-(4-(Bicyclo[2.2.1]heptan-2-yl)phenoxy)benzamide] | 80 to 90 | 40 to 60 | – | – |
| CCCc1ccc(Oc2ccc(C(=O)NO)cc2)cc1 [Compound 166, N-hydroxy-4-(4-propylphenoxy)benzamide] | 20 to 40 | 0 to 20 | – | – |
| CCC(C)(C)c1ccc(Oc2ccc(C(=O)NO)cc2)cc1 [Compound 171, N-hydroxy-4-(4-(tert-pentyl)phenoxy)benzamide] | 20 to 40 | 0 to 20 | 40 to 60 | – |
| O=C(NO)c1ccc(Oc2ccc(C3CCCCC3)cc2)cc1 [Compound 182, 4-(4-cyclohexylphenoxy)-N-hydroxybenzamide] | 20 to 40 | 0 to 20 | 20 to 40 | – |
| O=C(NO)c1ccc(Oc2ccc(C34CC5CC(CC(C5)C3)C4)cc2)cc1 [Compound 186, 4-(4-(Adamantan-1-yl)phenoxy)-N-hydroxybenzamide] | 20 to 40 | 0 to 20 | 20 to 40 | – |
| CC(C)c1ccc(Oc2ccc(C(=O)NO)cn2)cc1 [Compound 272, N-hydroxy-6-(4-isopropylphenoxy)nicotinamide] | 0 to 20 | 0 to 20 | 20 to 40 | – |
| CCC(C)(C)c1ccc(Oc2ccc(C(=O)NO)cn2)cc1 [Compound 273, N-hydroxy-6-(4-(tert-pentyl)phenoxy)nicotinamide] | – | 0 to 20 | – | – |
| O=C(NO)c1ccc(Oc2ccc(C3CCCCC3)cc2)nc1 [Compound 284, 6-(4-Cyclohexylphenoxy)-N-hydroxynicotinamide] | 0 to 20 | 0 to 20 | 20 to 40 | – |
| O=C(NO)c1ccc(Oc2ccc(C3CC4CCC3CC4)cc2)nc1 (centres unmarked) [Compound 287, 6-(4-((1s,4s)-bicyclo[2.2.2]octan-2-yl)phenoxy)-N-hydroxynicotinamide] | 20 to 40 | 0 to 20 | – | – |
| O=C(NO)c1ccc(Oc2ccc(C34CC5CC(CC(C5)C3)C4)cc2)nc1 [Compound 288, 6-(4-((3r,5r,7r)-adamantan-1-yl)phenoxy)-N-hydroxynicotinamide] | 0 to 20 | 0 to 20 | 20 to 40 | – |
| CNC(=O)c1ccc(Oc2ccc(C(F)(F)F)cc2)nc1 [Compound 300, N-methyl-6-(4-(trifluoromethyl)phenoxy)nicotinamide] | – | 80 to 90 | – | – |
| CN(C)C(=O)c1ccc(Oc2ccc(C3CCCCC3)cc2)nc1 [Compound 334, 6-(4-cyclohexylphenoxy)-N,N-dimethylnicotinamide] | 80 to 90 | 60 to 70 | – | – |
| O=C(NO)c1ccc(Oc2ccc(C34CC5CC(CC(C5)C3)C4)cc2)c(F)c1 [Compound 544, 4-(4-(Adamantan-1-yl)phenoxy)-3-fluoro-N-hydroxybenzamide] | 20 to 40 | 0 to 20 | 20 to 40 | – |
| O=C(NO)c1cnc(Oc2ccc(C3CCCCC3)cc2)c(F)c1 [Compound 644, 6-(4-Cyclohexylphenoxy)-5-fluoro-N-hydroxynicotinamide] | 20 to 40 | 0 to 20 | 60 to 70 | – |
| Oc1ccc(C=Cc2cc(O)cc(O)c2)cc1 [RES, resveratrol, reference compound] | 80 | 40 | 60 | 0.9 ± 0.0 |
